# Data from PMC9293210, “Molecular Recognition of Natural and Non‐Natural Substrates by Cellodextrin Phosphorylase from Ruminiclostridium Thermocellum Investigated by NMR Spectroscopy” (Chemistry (Weinheim an Der Bergstrasse, Germany), 2021).
# Columns and labels:
# [1] = target: T1, cellodextrin phosphorylase (CDP) (Acetivibrio thermocellus, UniProt Q93HT8); test: STD NMR titration (STD-AF of H4beta, […] s saturation); type: binding; conditions: [D11]Tris 25 mM pH 7.4, NaCl 100 mM; no phosphate; apparent
# T1 construct: gene cdp-ym4; 1009 amino acids, 114 kDa per monomer, homodimer
# T1 sequence (Q93HT8 1-984): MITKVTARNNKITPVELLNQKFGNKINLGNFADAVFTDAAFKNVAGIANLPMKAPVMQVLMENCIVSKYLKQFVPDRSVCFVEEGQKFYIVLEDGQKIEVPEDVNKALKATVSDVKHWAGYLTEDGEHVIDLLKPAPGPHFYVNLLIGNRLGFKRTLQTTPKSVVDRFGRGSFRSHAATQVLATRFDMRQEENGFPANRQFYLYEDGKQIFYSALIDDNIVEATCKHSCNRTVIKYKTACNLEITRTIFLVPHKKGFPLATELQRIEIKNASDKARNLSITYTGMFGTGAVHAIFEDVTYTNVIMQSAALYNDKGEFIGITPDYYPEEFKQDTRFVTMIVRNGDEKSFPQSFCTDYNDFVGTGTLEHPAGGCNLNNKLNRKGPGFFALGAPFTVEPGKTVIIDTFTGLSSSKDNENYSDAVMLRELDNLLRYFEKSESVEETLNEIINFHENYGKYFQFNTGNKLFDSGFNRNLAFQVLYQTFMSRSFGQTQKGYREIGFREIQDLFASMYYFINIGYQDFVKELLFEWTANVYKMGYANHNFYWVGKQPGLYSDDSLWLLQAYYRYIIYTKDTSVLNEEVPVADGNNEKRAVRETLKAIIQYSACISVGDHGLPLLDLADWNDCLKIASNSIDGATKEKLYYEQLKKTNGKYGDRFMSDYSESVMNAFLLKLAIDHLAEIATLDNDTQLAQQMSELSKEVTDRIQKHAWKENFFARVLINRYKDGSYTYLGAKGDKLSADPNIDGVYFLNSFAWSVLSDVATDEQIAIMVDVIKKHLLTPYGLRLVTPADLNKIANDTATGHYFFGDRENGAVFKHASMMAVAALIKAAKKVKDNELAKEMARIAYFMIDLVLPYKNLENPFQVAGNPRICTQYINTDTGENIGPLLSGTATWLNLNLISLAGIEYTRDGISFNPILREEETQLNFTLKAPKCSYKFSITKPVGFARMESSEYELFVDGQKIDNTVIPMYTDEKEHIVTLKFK
# [2] = target: T1, cellodextrin phosphorylase (CDP); test: STD NMR, binding epitope mapping; conditions: [D11]Tris 25 mM pH 7.4, NaCl 100 mM, 278 K; 3 mM ligand, 15 uM binding sites; acceptor site
# [3] = target: T1, cellodextrin phosphorylase (CDP); test: STD NMR, binding epitope mapping; tr-NOESY; conditions: [D11]Tris 25 mM pH 7.4, NaCl 100 mM, 278 K (STD); tr-NOESY 290 K; 3 mM ligand, 15 uM binding sites (STD); acceptor site
structure (smiles),measurement,setting,value
OC[C@H]1O[C@@H](O[C@H]2[C@H](O)[C@@H](O)C(O)O[C@@H]2CO)[C@H](O)[C@@H](O)[C@@H]1O (stereo partly drawn) [D-cellobiose],Kd,[1],2200 µM
OC[C@H]1O[C@@H](O[C@H]2[C@H](O)[C@@H](O)[C@H](O[C@H]3[C@H](O)[C@@H](O)C(O)O[C@@H]3CO)O[C@@H]2CO)[C@H](O)[C@@H](O)[C@@H]1O (stereo partly drawn) [D-cellotriose],"STD NMR, binding epitope mapping",[2],D‐cellotriose showed contacts for both the reducing α‐ and β‐glucose rings
OC[C@H]1O[C@@H](O[C@H]2[C@H](O)[C@@H](CO)OC(O)[C@@H]2O)[C@H](O)[C@@H](O)[C@@H]1O (stereo partly drawn) [D-laminaribiose],"STD NMR, binding epitope mapping; tr-NOESY",[3],H2 of the non‐reducing glucose ring received the largest saturation transfer
